Data taken from PubChem BioAssay (NCI).
Values joined by “and” are separate entries in the source; they are usually repeats but may differ in a detail not shown here. Equal entries are not always repeated.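 Growth conditions: 96-well plates. Treatment: test compound, 48 hours, 5 concentrations. Analysis: linear interpolation between bracketing concentrations; unreached endpoints set to highest concentration. GI50 = concentration required for 50% inhibition of growth. The concentration for full growth arrest is given as TGI.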

Assays:
Test in all cases: growth of human tumour cells (NCI), 48 h
[1] = tested on: SK-MEL-28 melanoma
[2] = tested on: TK-10 renal
[3] = tested on: SW-620 colon
[4] = tested on: HOP-62 NSCLC
[5] = tested on: SK-OV-3 ovarian
[6] = tested on: HL-60(TB) leukemia
[7] = tested on: 786-0 renal
[8] = tested on: SF-268 CNS
[9] = tested on: U251 CNS
[10] = tested on: HS 578T breast

SMILES | GI50 [1] [µM] | TGI [1] [µM] | GI50 [2] [µM] | TGI [2] | GI50 [3] | TGI [3] | GI50 [4] [µM] | TGI [4] | GI50 [5] [µM] | TGI [5] | GI50 [6] [µM] | TGI [6] | GI50 [7] [µM] | TGI [7] | GI50 [8] | TGI [8] | GI50 [9] [µM] | TGI [9] [µM] | GI50 [10] [µM] | TGI [10] [µM]
CCN1CCN(c2nc(C)cc(N(CCCNc3ccnc4cc(Cl)ccc34)Cc3ccc4c(c3)OCO4)n2)CC1 | 1.61 | 3.11 | 1.74 | 3.21 µM | 1.4 µM | 3.12 µM | 1.46 | 4.09 µM | 2.58 | 6.7 µM | 2.11 | 3.96 µM | 1.46 | 2.95 µM | 1.62 µM | 4.06 µM | 1.56 | 3.17 |  | 
N#CCCn1[nH]c(=O)c(Cl)c(Cl)c1=O |  | 30.9 |  | 68.4 µM |  | 31.8 µM |  |  |  |  |  | 35.5 µM |  | 39.6 µM |  | 32 µM |  | 30.3 |  | 
NC(=O)c1ccc2c(c1)-c1nc-2nc2[n-]c(nc3nc(nc4[n-]c(n1)c1ccc(C(N)=O)cc41)-c1ccc(C(N)=O)cc1-3)c1ccc(C(N)=O)cc21.[Co+2] | > 50 | > 50 | > 50 | > 50 µM | 26.9 µM | > 50 µM | > 50 | > 50 µM | > 50 | > 50 µM | 7.12 | > 50 µM | 19.5 | > 50 µM | > 50 µM | > 50 µM | > 50 | > 50 |  | 
CN(C)CCNC(=O)c1cccc2c1nc(-c1ccc(F)cc1)c1ccccc12 |  | 20.3 |  | 16.6 µM |  | 14.8 µM |  | 12.9 µM |  | 21.1 µM |  | 10.9 µM |  | 18.1 µM |  | 21.8 µM |  | 16.5 |  | 
C[C@H]1CC[P+](Cc2ccccc2)(c2ccccc2)C1 (some centres not stated) |  | > 100 |  | > 100 µM |  | > 100 µM |  | > 100 µM |  | > 100 µM |  | > 100 µM |  | > 100 µM |  |  |  | > 100 |  | 
Cn1cc(/C=C\[N+](=O)[O-])c2ccccc21 | 23.3 | 50.3 | 78.3 | > 100 µM |  |  | > 100 | > 100 µM | > 100 | > 100 µM |  |  | > 100 | > 100 µM | > 100 µM | > 100 µM | 36.5 | > 100 | 19.8 | 50.5
COC1=C(N)C(=O)c2nc(-c3nc(C(=O)O)c(C)c(-c4ccc(OC)c(OC)c4O)c3N)ccc2C1=O |  |  |  | 0.00795 µM and 0.0706 µM | 0.00124 µM and 0.00653 µM | 0.00424 µM and 0.0268 µM and 0.0181 µM |  | 0.0407 µM and < 0.01 µM |  | 0.0272 µM and 0.0174 µM |  | 0.00499 µM and 0.0204 µM |  | 0.00261 µM and 0.0217 µM and < 0.01 µM | 0.00186 µM and 0.000781 µM and < 0.01 µM | 0.00904 µM and 0.0276 µM and < 0.01 µM |  |  |  | 0.0412
COc1ccc(-c2cc(=O)c3c(O)c(OC)c(OC)c(OC)c3o2)cc1OC |  | > 100 |  | > 100 µM |  |  |  | 82.9 µM |  | 81 µM |  | > 100 µM |  | > 100 µM |  | 51.6 µM |  | > 100 |  | 81.8
COC(=O)C(=O)Cc1nc2ccccc2s1 |  | > 100 |  | > 100 µM |  | > 100 µM |  | > 100 µM |  | > 100 µM |  | > 100 µM |  | > 100 µM |  | > 100 µM |  | > 100 |  | 
O=C1C(c2ccccc2)=C(c2ccccc2)C(c2ccc(Cc3ccc(C4=C(c5ccccc5)C(=O)C(c5ccccc5)=C4c4ccccc4)cc3)cc2)=C1c1ccccc1 |  |  |  | > 100 µM |  | > 100 µM |  | > 100 µM |  | > 100 µM |  | > 100 µM |  | > 100 µM |  | > 100 µM |  | > 100 |  | 
